Where two headings read alike, the source gives them in different places.
Target: T1, Akt1 (Homo sapiens, UniProt P31749, S473D)
T1 construct: The version of Akt used in these studies lacks the pleckstrin homology (PH) domain
Test: Akt1 kinase assay, fluorescence polarization (IMAP)
Format: biochemical
Description: The Akt1 kinase assay is based on the measurement of fluorescence polarization using IMAP technology (Molecular Devices Corporation #R8062). Two microliters of inhibitor compounds diluted to a concentration of 10 millimolar are added to column 2 of a polypropylene 96-well plate containing 98 microliters of 100% DMSO; the wells in columns 3-12 contain 60 microliters of 100% DMSO. The various test compounds are serially diluted 1:3 across the plate by pipetting 30 microliters of compounds into wells containing 60 microliters of 100% DMSO. Column 12 receives DMSO only and is used as a negative control for inhibition. The components of the wells are mixed and 15 microliters of each well are transferred to another 96-well plate already containing 60 microliters of reaction buffer (RB: 10 mM Tris-HCl, pH 7.5, 10 mM MgCl2, 0.1 mM EGTA, 0.01% Triton-X100 (Sigma #X-100), freshly added 1 mM DTT). After mixing, the […] reactions are assembled. First, five microliters of the above compound/reaction buffer mixture is transferred to the bottom of a 96-well black polystyrene reaction plate (Costar, #3694). Next, ten microliters of a solution containing 4 micromolar ATP and 40 nanomolar fluorescent-labeled Crosstide (Tamara-labeled […] peptide) are added. Then, 5 microliters (1.5 nanograms) of Akt protein in RB are added. The version of Akt used in these studies lacks the pleckstrin homology (PH) domain, and contains an aspartic acid residue in place of a serine residue in position 473 within the Akt1 hydrophobic motif. The Akt1 protein contains a polyhistidine tag at the amino terminus and is prephosphorylated on threonine at position 308 in order to activate latent kinase activity. Once the reaction components and inhibitors are assembled, the plates are gently tapped, covered with foil, and then incubated at ambient temperature for 30 minutes. IMAP beads (Molecular Devices) are then added (60 microliters of a 1:400 dilution of beads in RB). Plates are read on a Victor Plate Reader with the following settings: CW lamp filter: 544 nm, emission filter: 615 nm. Control values from wells lacking Akt protein are subtracted from the gross readings, and IC50 values are calculated using XLDA.

[1] = Table 1, concentration bins, read-out: Concentration Range at which exemplary compounds of formula I inhibit Akt kinase activity
[2] = average Akt kinase activity (IC50), read-out: Avg Akt kinase, μM (50% inhibition)
[3] = Table 3, read-out: Avg Akt kinase, μM (50% inhibition)

T1 sequence (P31749 118-480 S473D limits assumed, species assumed): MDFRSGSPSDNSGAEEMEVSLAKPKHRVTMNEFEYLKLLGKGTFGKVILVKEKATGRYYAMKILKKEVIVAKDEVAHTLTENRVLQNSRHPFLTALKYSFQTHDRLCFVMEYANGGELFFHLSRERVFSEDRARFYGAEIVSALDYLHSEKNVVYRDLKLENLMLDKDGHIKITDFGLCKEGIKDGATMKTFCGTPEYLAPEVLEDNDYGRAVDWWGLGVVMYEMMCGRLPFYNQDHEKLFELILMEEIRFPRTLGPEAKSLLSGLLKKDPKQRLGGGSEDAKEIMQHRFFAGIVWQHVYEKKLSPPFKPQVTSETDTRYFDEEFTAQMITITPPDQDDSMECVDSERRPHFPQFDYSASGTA

Compound	IC50 [1] [µM]	IC50 [2] [µM]	IC50 [3] [µM]	IC50 (Table 4, read-out: Avg Akt kinase, μM (50% inhibition)) [µM]
COCCN(CC1(N)CCN(c2ncnc3[nH]cc(C)c23)C1)C(=O)Nc1ccccc1 (stereo not drawn) [Example 76, 1-{[3-amino-1-(5-methyl-7H-pyrrolo[2,3-d]pyrimidin-4-yl)pyrrolidin-3-yl]methyl}-1-(2-methoxyethyl)-3-phenylurea]	0.101 to 10	0.523	–	–
N[C@]1(CNC(=O)c2ccccc2Cl)CCN(c2ncnc3[nH]cc(Cl)c23)C1 [Example 85, N-{[(3S)-3-amino-1-(5-chloro-7H-pyrrolo[2,3-d]pyrimidin-4-yl)pyrrolidin-3-yl]methyl}-2-chlorobenzamide]	0.00251 to 0.01	0.00643	–	–
Cc1c[nH]c2ncnc(N3CC[C@](N)(CNc4cccc(F)c4)C3)c12 [Example 37, (3S)-3-{[(3-fluorophenyl)amino]methyl}-1-(5-methyl-7H-pyrrolo[2,3-d]pyrimidin-4-yl)pyrrolidin-3-amine]	0.00251 to 0.01	–	0.00329	–
Cc1c[nH]c2ncnc(N3CC[C@](N)(CNC(=O)c4ccccc4Cl)C3)c12 [Example 71, N—(((S)-3-amino-1-(5-methyl-7H-pyrrolo[2,3-d]pyrimidin-4-yl)pyrrolidin-3-yl)methyl)-2-chlorobenzamide]	0.00251 to 0.01	0.00797	–	–
Cc1c[nH]c2ncnc(N3CC[C@](N)(CNC4=NC(=O)CC=C4)C3)c12 [Example 56, 6-({[(3S)-3-amino-1-(5-methyl-7H-pyrrolo[2,3-d]pyrimidin-4-yl)pyrrolidin-3-yl]methyl}amino)pyridin-2(3H)-one]	0.0101 to 0.1	–	0.014	–
N[C@]1(CNC(=O)c2cc(F)ccc2F)CCN(c2ncnc3[nH]cc(Cl)c23)C1 [Example 106, N-{[(3S)-3-amino-1-(5-chloro-7H-pyrrolo[2,3-d]pyrimidin-4-yl)pyrrolidin-3-yl]methyl}-2,5-difluorobenzamide]	0.00025 to 0.0025	0.0025	–	–
Cc1c[nH]c2ncnc(N3CCC(N)(CNc4cccc5c4CCCC5)C3)c12 (stereo not drawn) [Example 35, 1-(5-methyl-7H-pyrrolo[2,3-d]pyrimidin-4-yl)-3-[(5,6,7,8-tetrahydronaphthalen-1-ylamino)methyl]pyrrolidin-3-amine]	0.00251 to 0.01	–	0.00797	–
Cc1cccc(F)c1C(=O)NC[C@@]1(N)CCN(c2ncnc3[nH]cc(C)c23)C1 [Example 121]	0.0101 to 0.1	0.0418	–	–
Cc1c[nH]c2ncnc(N3CCC(N)(CNc4ccccc4N4CCOCC4)C3)c12 (stereo not drawn) [Example 29, 1-(5-methyl-7H-pyrrolo[2,3-d]pyrimidin-4-yl)-3-{[(2-morpholin-4-ylphenyl)amino]methyl}pyrrolidin-3-amine]	0.0101 to 0.1	–	0.0101	–
N-{[3-amino-1-(5-methyl-7H-pyrrolo[2,3-d]pyrimidin-4-yl)pyrrolidin-3-yl]methyl}pyrimidin-2-amine [Example 58]	–	–	0.123	–
CCc1c[nH]c2ncnc(N3CC[C@](N)(CNC(=O)c4cccc(Cl)c4)C3)c12 [Example 133]	0.00251 to 0.01	0.00447	–	–
Cc1c[nH]c2ncnc(N3CCC(N)(CNCCN(C)C)C3)c12 (stereo not drawn) [Example 46, N′-{[3-amino-1-(5-methyl-7H-pyrrolo[2,3-d]pyrimidin-4-yl)pyrrolidin-3-yl]methyl}-N,N-dimethylethane-1,2-diamine]	0.101 to 10	–	0.125	–
Cc1c[nH]c2ncnc(N3CCC(N)(CNc4cccc(Cl)c4Cl)C3)c12 (stereo not drawn) [Example 26, 3-{[(2,3-dichlorophenyl)amino]methyl}-1-(5-methyl-7H-pyrrolo[2,3-d]pyrimidin-4-yl)pyrrolidin-3-amine]	0.00025 to 0.0025	–	0.002	–
Cc1c[nH]c2ncnc(N3CCC(N)(CNc4ccccc4Oc4ccccc4)C3)c12 (stereo not drawn) [Example 20, 1-(5-methyl-7H-pyrrolo[2,3-d]pyrimidin-4-yl)-3-{[(2-phenoxyphenyl)amino]methyl}-pyrrolidin-3-amine]	0.0101 to 0.1	–	0.0155	–
CN(CC1(N)CCN(c2ncnc3[nH]cc(Cl)c23)C1)c1ccc(Cl)cc1 (stereo not drawn) [Example 55, 3-{[(4-chlorophenyl)(methyl)-amino]methyl}-1-(5-chloro-7H-pyrrolo[2,3-d]pyrimidin-4-yl)pyrrolidin-3-amine]	0.0101 to 0.1	–	0.012	–
N#Cc1c[nH]c2ncnc(N3CC[C@](N)(CNC(=O)c4ccc(F)cc4F)C3)c12 [Example 96, N-{[(3S)-3-amino-1-(5-cyano-7H-pyrrolo[2,3-d]pyrimidin-4-yl)pyrrolidin-3-yl]methyl}-2,4-difluorobenzamide]	0.00251 to 0.01	0.00771	–	–

Compound	IC50 [1] [µM]	IC50 [2] [µM]	IC50 [3] [µM]	IC50 (Table 4, read-out: Avg Akt kinase, μM (50% inhibition)) [µM]
N[C@]1(CNC(=O)c2cccc(F)c2F)CCN(c2ncnc3[nH]cc(Cl)c23)C1 [Example 81, N-{[(3S)-3-amino-1-(5-chloro-7H-pyrrolo[2,3-d]pyrimidin-4-yl)pyrrolidin-3-yl]methyl}-2,3-difluorobenzamide]	0.00251 to 0.01	0.00346	–	–
Cc1c(Cl)cccc1NCC1(N)CCN(c2ncnc3[nH]cc(Cl)c23)C1 (stereo not drawn) [Example 43, 3-{[(3-chloro-2-methylphenyl)amino]methyl}-1-(5-chloro-7H-pyrrolo[2,3-d]pyrimidin-4-yl)pyrrolidin-3-amine]	0.00025 to 0.0025	–	0.002	–
N[C@]1(CNC(=O)c2ccccc2)CCN(c2ncnc3[nH]cc(Cl)c23)C1 [Example 108, N-{[(3S)-3-amino-1-(5-chloro-7H-pyrrolo[2,3-d]pyrimidin-4-yl)pyrrolidin-3-yl]methyl}benzamide]	0.00251 to 0.01	0.00251	–	–
Cc1cc(C(=O)NC[C@]2(N)CCN(c3ncnc4[nH]cc(Cl)c34)C2)no1 [Example 79]	0.00251 to 0.01	0.00377	–	–
COc1cc(NCC2(N)CCN(c3ncnc4[nH]cc(C)c34)C2)cc(C(F)(F)F)c1 (stereo not drawn) [Example 30, 3-({[3-methoxy-5-(trifluoromethyl)phenyl]amino}-methyl)-1-(5-methyl-7H-pyrrolo[2,3-d]pyrimidin-4-yl)pyrrolidin-3-amine]	0.0101 to 0.1	–	0.0135	–
Cc1c[nH]c2ncnc(N3CCC(N)(CNc4cccc(OC(F)(F)F)c4)C3)c12 (stereo not drawn) [Example 25, 1-(5-methyl-7H-pyrrolo[2,3-d]pyrimidin-4-yl)-3-({[3-(trifluoromethoxy)phenyl]amino}methyl)pyrrolidin-3-amine]	0.0101 to 0.1	–	0.0145	–
Cc1c[nH]c2ncnc(N3CC[C@](N)(CNC(=O)c4c(F)cccc4F)C3)c12 [Example 126, N-{[(3S)-3-amino-1-(5-methyl-7H-pyrrolo[2,3-d]pyrimidin-4-yl)pyrrolidin-3-yl]methyl}-2,6-difluorobenzamide]	0.0101 to 0.1	0.0199	–	–
N#Cc1c[nH]c2ncnc(N3CC[C@](N)(CNC(=O)c4cccc(F)c4F)C3)c12 [Example 90]	0.0101 to 0.1	0.0395	–	–
Cc1c[nH]c2ncnc(N3CC[C@@](N)(COc4cccc(C(F)(F)F)c4)C3)c12 [Example 62]	–	–	–	2.69
N[C@]1(CNC(=O)c2c(F)cccc2F)CCN(c2ncnc3[nH]cc(Cl)c23)C1 [Example 130]	0.00251 to 0.01	0.00906	–	–
CCc1c[nH]c2ncnc(N3CC[C@](N)(CNC(=O)c4cccc(F)c4Cl)C3)c12 [Example 125, N-{[(3S)-3-amino-1-(5-ethyl-7H-pyrrolo[2,3-d]pyrimidin-4-yl)pyrrolidin-3-yl]methyl}-2-chloro-3-fluorobenzamide]	0.0101 to 0.1	0.0139	–	–
Cc1c[nH]c2ncnc(N3CC[C@](N)(CNc4cccc(C(F)(F)F)c4F)C3)c12 [Example 36, (3S)-3-({[2-fluoro-3-(trifluoromethyl)phenyl]amino}-methyl)-1-(5-methyl-7H-pyrrolo[2,3-d]pyrimidin-4-yl)pyrrolidin-3-amine]	0.00025 to 0.0025	–	0.002	–
N#Cc1c[nH]c2ncnc(N3CCC(N)(CNc4ccc5c(c4)CNCC5)C3)c12 (stereo not drawn) [Example 39, 4-{3-amino-3-[(1,2,3,4-tetrahydroisoquinolin-7-ylamino)methyl]pyrrolidin-1-yl}-7H-pyrrolo[2,3-d]pyrimidine-5-carbonitrile]	0.101 to 10	–	4.1	–
N[C@]1(CNC(=O)c2cccc(F)c2Cl)CCN(c2ncnc3[nH]cc(Cl)c23)C1 [Example 124, N-{[(3S)-3-amino-1-(5-chloro-7H-pyrrolo[2,3-d]pyrimidin-4-yl)pyrrolidin-3-yl]methyl}-2-chloro-3-fluorobenzamide]	0.00251 to 0.01	0.00691	–	–
Cc1c[nH]c2ncnc(N3CCC(N)(CNc4ccc(F)cc4F)C3)c12 (stereo not drawn) [Example 34, 3-{[(2,4-difluorophenyl)amino]methyl}-1-(5-methyl-7H-pyrrolo[2,3-d]pyrimidin-4-yl)pyrrolidin-3-amine]	0.00251 to 0.01	–	0.00771	–

— patent publication US20080051419A1, “AMINE DERIVATIVES USEFUL AS ANTICANCER AGENTS” (PFIZER INC., priority 2006, published 2008)
